Laboratory results as given in patent US20070098801A1, “Particles shaped as platelets” (JANSSEN PHARMACEUTICA N.V., priority 2003, published 2007).

Assay: Modulated differential scanning calorimetry (glass transition in the reversing signal)
Assay type: physicochemical
Protocol: Modulated Differential scanning calorimetry (MDSC) was performed to evaluate the thermal characteristics before and after melt extrusion with injection of pressurized carbon dioxide. […] A glass transition is observed as an inflection in the DSC profile when heat flow is plotted against temperature. Often, the glass transition is accompanied with an enthalpy relaxation, which is seen as an endothermic signal superimposed on the glass transition. Furthermore, these polymers can be hydrophilic and thus they may have adsorbed a significant amount of water. Evaporation of water is also an endothermic process. These signals make interpretation of the glass transition difficult. Therefore, MDSC was used so that the different thermal events could be elucidated with regard to the reversible and non-reversible transitions. […]
The measurements were performed using a TA Instruments modulated DSC Q1000 differential scanning calorimeter and thermal analysis controller (TA Instruments, New Castle, Del., USA). […] The samples were analysed in standard (open) aluminum as well as in hermetically sealed TA Instruments pans. […] The glass transition was measured at the inflection point as half the height of the shift in the heat flow signal (Tg 1/2 cp). […]
The samples measured in open pans as well as in hermetically sealed pans were analysed at least in duplicate.

- Melting enthalpy ΔH of pure itraconazole: 85 J/g
SMILES: CCC(C)n1ncn(-c2ccc(N3CCN(c4ccc(OCC5COC(Cn6cncn6)(c6ccc(Cl)cc6Cl)O5)cc4)CC3)cc2)c1=O (stereo not shown) [itraconazole]
